# Assay results from ChEMBL document CHEMBL4257568, “Synthesis, hepatotoxic evaluation and antipyretic activity of nitrate ester analogs of the acetaminophen derivative SCP-1” (Bioorg Med Chem Lett, 2018).
# Active and inactive are the calls of the source. The calls are words filed in the database; no cut-off is given here.
# Legend:
# [1] = target: Cytochrome P450 3A4 (Homo sapiens, UniProt P08684); test: Inhibition of human CYP3A4 expressed in baculosomes at 1 uM using BOMCC as substrate preincubated for 20 mins followed by substrate and NADP+ addition and measured after 30 mins by fluorescence assay; type: ADME; conditions: recombinant enzyme, 0.5 h
# Cytochrome P450 3A4, sequence (P08684 whole entry): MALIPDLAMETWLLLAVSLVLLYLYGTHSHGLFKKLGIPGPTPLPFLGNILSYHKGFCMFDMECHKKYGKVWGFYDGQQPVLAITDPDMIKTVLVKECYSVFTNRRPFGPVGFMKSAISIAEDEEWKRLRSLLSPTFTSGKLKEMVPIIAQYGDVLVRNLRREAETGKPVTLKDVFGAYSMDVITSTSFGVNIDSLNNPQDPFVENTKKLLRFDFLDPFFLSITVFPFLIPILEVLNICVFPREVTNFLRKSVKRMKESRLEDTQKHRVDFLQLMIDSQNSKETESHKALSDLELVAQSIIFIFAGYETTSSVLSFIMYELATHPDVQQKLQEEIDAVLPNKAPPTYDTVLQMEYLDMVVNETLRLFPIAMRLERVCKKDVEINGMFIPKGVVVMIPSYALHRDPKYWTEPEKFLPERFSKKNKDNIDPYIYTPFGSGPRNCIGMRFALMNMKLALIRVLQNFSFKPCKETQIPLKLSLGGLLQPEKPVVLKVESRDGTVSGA
# [2] = tested on: HepaRG; test: Hepatotoxicity in human HepaRG cells assessed as necrotic cell death at 500 uM measured over 12 hrs by LDH assay; type: toxicity, cell-based
# [3] = tested on: HepaRG; test: Hepatotoxicity in human HepaRG cells assessed as necrotic cell death at 1000 uM measured over 12 hrs by LDH assay; type: toxicity, cell-based
# [4] = tested on: HepaRG; test: Hepatotoxicity in human HepaRG cells assessed as GSH depletion at 500 uM after 3 to 12 hrs by ThiolTracker Violet dye-based fluorescence assay; type: toxicity, cell-based
# [5] = tested on: HepaRG; test: Hepatotoxicity in human HepaRG cells assessed as GSH depletion at 1000 uM after 12 hrs by ThiolTracker Violet dye-based fluorescence assay; type: toxicity, cell-based
# [6] = tested on: HepaRG; test: Hepatotoxicity in human HepaRG cells assessed as GSH depletion at 500 uM measured over 12 hrs by ThiolTracker Violet dye-based fluorescence assay; type: toxicity, cell-based
# [7] = target: Cytochrome P450 2D6 (Homo sapiens, UniProt P10635); test: Inhibition of human CYP2D6 expressed in baculosomes at 1 uM using MOBFC as substrate preincubated for 20 mins followed by substrate and NADP+ addition and measured after 30 mins by fluorescence assay; type: ADME; conditions: recombinant enzyme, 0.5 h
# Cytochrome P450 2D6, sequence (P10635 whole entry): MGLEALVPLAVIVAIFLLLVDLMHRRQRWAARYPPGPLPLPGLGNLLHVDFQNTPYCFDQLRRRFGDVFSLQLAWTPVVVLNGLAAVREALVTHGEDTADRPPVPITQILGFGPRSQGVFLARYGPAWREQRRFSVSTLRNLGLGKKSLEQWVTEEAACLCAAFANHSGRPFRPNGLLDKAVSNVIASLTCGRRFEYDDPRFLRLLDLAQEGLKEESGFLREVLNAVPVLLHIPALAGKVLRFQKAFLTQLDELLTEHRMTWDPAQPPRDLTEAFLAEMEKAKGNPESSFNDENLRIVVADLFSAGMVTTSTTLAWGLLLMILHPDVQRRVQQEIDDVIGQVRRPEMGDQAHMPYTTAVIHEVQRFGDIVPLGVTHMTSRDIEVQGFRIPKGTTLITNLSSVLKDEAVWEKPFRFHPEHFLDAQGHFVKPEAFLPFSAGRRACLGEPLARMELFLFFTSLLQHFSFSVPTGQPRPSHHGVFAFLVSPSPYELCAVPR
# [8] = target: Cytochrome P450 2E1 (Homo sapiens, UniProt P05181); test: Inhibition of human CYP2E1 expressed in baculosomes at 1 uM using EOMCC as substrate preincubated for 20 mins followed by substrate and NADP+ addition and measured after 30 mins by fluorescence assay; type: ADME; conditions: recombinant enzyme, 0.5 h
# Cytochrome P450 2E1, sequence (P05181 whole entry): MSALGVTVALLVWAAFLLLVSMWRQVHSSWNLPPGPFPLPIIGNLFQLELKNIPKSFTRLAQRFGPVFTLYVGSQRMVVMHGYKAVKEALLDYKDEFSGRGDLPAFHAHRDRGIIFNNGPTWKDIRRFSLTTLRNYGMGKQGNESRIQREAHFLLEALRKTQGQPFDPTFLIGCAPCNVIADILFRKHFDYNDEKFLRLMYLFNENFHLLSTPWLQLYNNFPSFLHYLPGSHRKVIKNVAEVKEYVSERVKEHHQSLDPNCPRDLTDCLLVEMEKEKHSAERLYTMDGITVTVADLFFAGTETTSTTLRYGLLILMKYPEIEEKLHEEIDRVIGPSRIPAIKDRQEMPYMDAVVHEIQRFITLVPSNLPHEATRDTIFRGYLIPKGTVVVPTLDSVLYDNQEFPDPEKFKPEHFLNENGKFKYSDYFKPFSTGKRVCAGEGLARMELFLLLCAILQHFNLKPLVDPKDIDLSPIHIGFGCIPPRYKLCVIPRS
# [9] = tested on: Mus musculus; test: Antipyretic activity in LPS-induced CD1 mouse fever model assessed as effect on rectal temperature at 50 ug/kg, po administered as single dose and measured every 2 hrs up to 24 hrs; type: functional, organism-based
SMILES,inhibition (INH) [1],Activity [2],Activity [3],Activity [4],Activity [5],Activity [6],inhibition (INH) [7],inhibition (INH) [8],Activity [9]
O=C(CN1C(=O)c2ccccc2S1(=O)=O)Nc1ccc(O)cc1,Not Active,Non-Toxic,Toxic,Toxic,Non-Toxic,Toxic,Not Active,Not Active,
CC(=O)Nc1ccc(O)cc1 [ACETAMINOPHEN],Active,Toxic,Toxic,Toxic,Toxic,Toxic,,Active,Active
O=C(CN1C(=O)c2ccccc2S1(=O)=O)Nc1ccc(OC(=O)CCO[N+](=O)[O-])cc1,Not Active,Non-Toxic,Non-Toxic,Non-Toxic,Non-Toxic,Non-Toxic,Not Active,Not Active,inactive
O=C(CN1C(=O)c2ccccc2S1(=O)=O)Nc1ccc(OC(=O)CCCO[N+](=O)[O-])cc1,Not Active,Toxic,,Non-Toxic,Non-Toxic,Non-Toxic,Not Active,Not Active,Active
